Reference: the supplement of paper PMC10627819

What was measured:
S. pneumoniae D39V [1] = assay: fitness (endpoint OD595 vs no drug) (fraction); higher = more growth
How it was run: (§1)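 Background-subtracted growth curves were the basis for fitness, taken as the optical density at entry into stationary phase over the robust mean of no-drug control wells. A cap of 1 was applied. The curves came from OD595 readings every 30 min for 14 h at 37 °C, in 384-well plates seeded at OD595 0.01 with 30 µl, or 55 µl for S. pneumoniae.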

B. subtilis 168 [2] = assay: as above
How it was run: as §1

S. pneumoniae D39V [3] = assay: Bliss interaction score (quartile over a dose matrix) (fitness difference); higher = more antagonism (negative = synergy)
How it was run: (§2)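 Combination data were used to infer fitness under each single drug. Fitness is the OD595 at entry into stationary phase divided by the robust mean of the plate's no-drug wells, with a cap of 1. The Bliss score is the observed minus the expected product fitness, summarised by quartiles over technical, biological and donor/recipient replicates.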

B. subtilis 168 [4] = assay: as above
How it was run: as §2

S. aureus DSM 20231 = assay: as above
How it was run: as §2

S. aureus Newman = assay: as above
How it was run: as §2
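Wherever Bliss interaction score (quartile over a dose matrix) is given: first quartile when negative (synergy) and third quartile when positive (antagonism).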

C[C@H]1COc2c(N3CCN(C)CC3)c(F)cc3c(=O)c(C(=O)O)cn1c23 [Levofloxacin] + CCC[C@@H]1C[C@@H](C(=O)N[C@@H]([C@H]2O[C@H](SC)[C@H](O)[C@@H](O)[C@H]2O)[C@@H](C)O)N(C)C1 [Lincomycin]
Conditions | fitness
B. subtilis 168 [2], first compound 0.002 µg/mL, partner 0.4 µg/mL | 0.897
B. subtilis 168 [2], first compound 0.0039 µg/mL, partner 0.4 µg/mL | 0.888
B. subtilis 168 [2], first compound 0.0312 µg/mL, partner 0.1 µg/mL | 0.0367
B. subtilis 168 [2], first compound 0.0312 µg/mL, partner 0.2 µg/mL | 0.0349
B. subtilis 168 [2], first compound 0.0312 µg/mL, partner 0.4 µg/mL | 0.0483
B. subtilis 168 [2], first compound 0.0625 µg/mL, partner 0.1 µg/mL | 0.0423
B. subtilis 168 [2], first compound 0.0625 µg/mL, partner 0.2 µg/mL | 0.0292
B. subtilis 168 [2], first compound 0.0625 µg/mL, partner 0.4 µg/mL | 0.0493
B. subtilis 168 [2], first compound 0.125 µg/mL, partner 0.1 µg/mL | 0.0441
B. subtilis 168 [2], first compound 0.125 µg/mL, partner 0.2 µg/mL | 0.0449
B. subtilis 168 [2], first compound 0.125 µg/mL, partner 0.4 µg/mL | 0.0489
S. pneumoniae D39V [1], first compound 0.1725 µg/mL, partner 0.2 µg/mL | 0.768
S. pneumoniae D39V [1], first compound 0.1725 µg/mL, partner 0.4 µg/mL | 0.7
S. pneumoniae D39V [1], first compound 0.1725 µg/mL, partner 0.8 µg/mL | 0.266
S. pneumoniae D39V [1], first compound 0.2 µg/mL, partner 0.215 µg/mL | 0.807
S. pneumoniae D39V [1], first compound 0.2 µg/mL, partner 0.43 µg/mL | 0.77
S. pneumoniae D39V [1], first compound 0.2 µg/mL, partner 0.86 µg/mL | 0.5
S. pneumoniae D39V [1], first compound 0.345 µg/mL, partner 0.2 µg/mL | 0.726
S. pneumoniae D39V [1], first compound 0.345 µg/mL, partner 0.4 µg/mL | 0.639
S. pneumoniae D39V [1], first compound 0.345 µg/mL, partner 0.8 µg/mL | 0.201
S. pneumoniae D39V [1], first compound 0.4 µg/mL, partner 0.215 µg/mL | 0.754
S. pneumoniae D39V [1], first compound 0.4 µg/mL, partner 0.43 µg/mL | 0.68
S. pneumoniae D39V [1], first compound 0.4 µg/mL, partner 0.86 µg/mL | 0.379
S. pneumoniae D39V [1], first compound 0.69 µg/mL, partner 0.2 µg/mL | 0.542
S. pneumoniae D39V [1], first compound 0.69 µg/mL, partner 0.4 µg/mL | 0.503
S. pneumoniae D39V [1], first compound 0.69 µg/mL, partner 0.8 µg/mL | 0.18
S. pneumoniae D39V [1], first compound 0.8 µg/mL, partner 0.215 µg/mL | 0.691
S. pneumoniae D39V [1], first compound 0.8 µg/mL, partner 0.43 µg/mL | 0.596
S. pneumoniae D39V [1], first compound 0.8 µg/mL, partner 0.86 µg/mL | 0.272

fitness, B. subtilis 168 [2], one replicate
Conditions | partner 0.1 µg/mL | partner 0.2 µg/mL | partner 0.4 µg/mL | partner 0.8 µg/mL | partner 1.6 µg/mL
first compound 0.001 µg/mL | – | – | 0.789 | 0.889 | 0.849
first compound 0.002 µg/mL | ≥ 1 | 0.968 | – | 0.797 | 0.767
first compound 0.0039 µg/mL | ≥ 1 | 0.975 | – | 0.743 | 0.806
first compound 0.0078 µg/mL | 0.997 | 0.961 | 0.945 | – | –

Conditions | Bliss interaction score
B. subtilis 168 [4] | 0.0149
S. aureus DSM 20231 | 0.169
S. aureus Newman | 0.0423
S. pneumoniae D39V [3] | 0.104

C[C@H]1COc2c(N3CCN(C)CC3)c(F)cc3c(=O)c(C(=O)O)cn1c23 [Levofloxacin] + CO[C@@H]1[C@@H](OC(N)=O)[C@@H](O)[C@H](Oc2ccc3c(O)c(NC(=O)c4ccc(O)c(CC=C(C)C)c4)c(=O)oc3c2C)OC1(C)C [Novobiocin]
fitness, B. subtilis 168 [2], one replicate
Conditions | partner 0.05 µg/mL | partner 0.1 µg/mL | partner 0.125 µg/mL | partner 0.2 µg/mL | partner 0.25 µg/mL | partner 0.5 µg/mL
first compound 0.001 µg/mL | ≥ 1 | ≥ 1 | – | ≥ 1 | – | –
first compound 0.002 µg/mL | 0.929 | 0.952 | 0.908 | 0.933 | 0.874 | 0.493
first compound 0.0039 µg/mL | 0.965 | ≥ 1 | 0.839 | 0.928 | 0.808 | 0.505
first compound 0.0078 µg/mL | – | – | 0.864 | – | 0.808 | 0.457

fitness, B. subtilis 168 [2]
Conditions | first compound 0.0312 µg/mL | first compound 0.0625 µg/mL | first compound 0.125 µg/mL
partner 0.0125 µg/mL | 0.0275 | 0.0273 | 0.0195
partner 0.025 µg/mL | 0.0255 | 0.0301 | 0.0265
partner 0.05 µg/mL | 0.028 | 0.0286 | 0.0286

Conditions | Bliss interaction score
B. subtilis 168 [4] | -0.0305
S. aureus DSM 20231 | -0.0698
S. aureus Newman | -0.091
S. pneumoniae D39V [3] | -0.121

C[C@H]1COc2c(N3CCN(C)CC3)c(F)cc3c(=O)c(C(=O)O)cn1c23 [Levofloxacin] + COc1cc(Cc2cnc(N)nc2N)cc(OC)c1OC [Trimethoprim]
B. subtilis 168 [2], one replicate
Conditions | fitness
first compound 0.001 µg/mL, partner 0.125 µg/mL | 0.528
first compound 0.001 µg/mL, partner 0.25 µg/mL | 0.41
first compound 0.001 µg/mL, partner 0.5 µg/mL | 0.456
first compound 0.002 µg/mL, partner 0.1 µg/mL | 0.907
first compound 0.002 µg/mL, partner 0.2 µg/mL | 0.804
first compound 0.002 µg/mL, partner 0.4 µg/mL | 0.572
first compound 0.0039 µg/mL, partner 0.1 µg/mL | 0.884
first compound 0.0039 µg/mL, partner 0.2 µg/mL | 0.745
first compound 0.0039 µg/mL, partner 0.4 µg/mL | 0.548
first compound 0.0078 µg/mL, partner 0.1 µg/mL | 0.872
first compound 0.0078 µg/mL, partner 0.125 µg/mL | 0.736
first compound 0.0078 µg/mL, partner 0.2 µg/mL | 0.696
first compound 0.0078 µg/mL, partner 0.4 µg/mL | 0.521
first compound 0.0312 µg/mL, partner 1 µg/mL | 0.0312
first compound 0.0312 µg/mL, partner 2 µg/mL | 0.0414
first compound 0.0625 µg/mL, partner 1 µg/mL | 0.0468
first compound 0.0625 µg/mL, partner 2 µg/mL | 0.0379
first compound 0.125 µg/mL, partner 1 µg/mL | 0.0309
first compound 0.125 µg/mL, partner 2 µg/mL | 0.0616

fitness, B. subtilis 168 [2]
Conditions | first compound 0.002 µg/mL | first compound 0.0039 µg/mL | first compound 0.0078 µg/mL | first compound 0.0312 µg/mL | first compound 0.0625 µg/mL | first compound 0.125 µg/mL
partner 0.125 µg/mL | 0.554 | 0.564 | – | – | – | –
partner 0.25 µg/mL | – | – | 0.689 | – | – | –
partner 0.5 µg/mL | 0.423 | 0.414 | 0.494 | 0.0339 | 0.0357 | 0.0365

Conditions | Bliss interaction score
B. subtilis 168 [4] | 0.0693
S. aureus DSM 20231 | -0.0537
S. aureus Newman | -0.109
S. pneumoniae D39V [3] | -0.112

CN(C)C(=O)C(CCN1CCC(O)(c2ccc(Cl)cc2)CC1)(c1ccccc1)c1ccccc1 [Loperamide] + CO[C@@H]1[C@@H](OC(N)=O)[C@@H](O)[C@H](Oc2ccc3c(O)c(NC(=O)c4ccc(O)c(CC=C(C)C)c4)c(=O)oc3c2C)OC1(C)C [Novobiocin]
B. subtilis 168 [2], first compound 25 µg/mL
Conditions | fitness
partner 0.0125 µg/mL | 0.889
partner 0.025 µg/mL | 0.85
partner 0.05 µg/mL | 0.86

fitness, B. subtilis 168 [2], one replicate
Conditions | first compound 25 µg/mL | first compound 50 µg/mL | first compound 100 µg/mL
partner 0.125 µg/mL | 0.703 | 0.028 | 0.0375
partner 0.25 µg/mL | 0.274 | 0.0063 | 0.0267
partner 0.5 µg/mL | 0.186 | 0.0466 | 0.0548

Conditions | Bliss interaction score
B. subtilis 168 [4] | 0.205
S. aureus DSM 20231 | -0.0535
S. aureus Newman | -0.0759
S. pneumoniae D39V [3] | -0.113

CN(C)C(=O)C(CCN1CCC(O)(c2ccc(Cl)cc2)CC1)(c1ccccc1)c1ccccc1 [Loperamide] + COc1cc(Cc2cnc(N)nc2N)cc(OC)c1OC [Trimethoprim]
fitness, B. subtilis 168 [2], one replicate
Conditions | partner 0.1 µg/mL | partner 0.125 µg/mL | partner 0.2 µg/mL | partner 0.4 µg/mL | partner 1 µg/mL | partner 2 µg/mL
first compound 25 µg/mL | 0.0203 | 0.525 | 0.0477 | 0.0288 | 0.0225 | 0.0222
first compound 50 µg/mL | 0.0097 | 0.0833 | 0.0381 | 0.0129 | 0.0319 | 0.0248
first compound 100 µg/mL | 0.0141 | 0.107 | 0.0463 | 0.0259 | 0.031 | 0.0361

fitness, B. subtilis 168 [2]
Conditions | first compound 50 µg/mL | first compound 100 µg/mL
partner 0.25 µg/mL | 0.201 | 0.0658
partner 0.5 µg/mL | 0.0275 | 0.0239

Conditions | Bliss interaction score
B. subtilis 168 [4] | -0.102
S. aureus DSM 20231 | -0.0416
S. aureus Newman | 0.0605
S. pneumoniae D39V [3] | 0.274
